Laboratory results published in the supplement of paper PMC11208160.

Test: recombinant UMI read abundance after kanamycin selection (control-corrected) (log10(CPM+1)); higher = more efficient recombination; extreme values may be limits of the assay; sequences stand for … in AGTGCAGAGAAAATCGGCCAGTTTTCTCTGCCTGCAGTCCGCATGCCGTGGGACCCCTTGGGTTCTAACCTGTTGCCTAGATTTATGCAGCGGACTGCCTTTCTCCCAAAGTGATAAACCGG…AGGTTGGTTTCACT; site = the 11-nt donor
Method in brief: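 The measure is log10(CPM+1) for recombinant UMIs. These were PCR-amplified across the donor–target junction and sequenced after Escherichia coli carrying a donor and donor-binding-loop pair library and a target plasmid with T7-inducible IS621 bridge recombinase was plated on IPTG (0.07 mM) plus kanamycin or unselected. CPM were averaged over two replicates and scaled by control-derived factors.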
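Note: IS621 bridge recombinase in Escherichia coli cells against a fixed T5 target plasmid.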

Sequence	recombinant UMI read abundance (log10)
ACCCGCTCATGGACCGGTTTTCCCGGTAATCCGTATTTGTC (site ACCCGCTCTGA)	2.76
GTTGTTCCATGGACCGGTTTTCCCGGTAATCCGTATTTGGT (site GTTGTTCCTTC)	0.00361
ACCAGCTCATGGACCGGTTTTCCCGGTAATCCGTATTTGCT (site ACCAGCTCTAG)	2.25
GGCCGCCCATGGACCGGTTTTCCCGGTAATCCGTATTTGTT (site GGCCCCCCTAA)	0.00441
CTGGAATCATGGACCGGTTTTCCCGGTAATCCGTATTTGCA (site CTGGAATCTTG)	2.19
TGCTGGGCATGGACCGGTTTTCCCGGTAATCCGTATTTGGT (site TGCTTGGCTAC)	0.0187
CTGCTACCATGGACCGGTTTTCCCGGTAATCCGTATTTGCA (site CTGCTACCTCG)	0.00238
CCTAAAGCATGGACCGGTTTTCCCGGTAATCCGTATTTGAT (site CTTAAAGCTAT)	0.00697
CTGGAAACATGGACCGGTTTTCCCGGTAATCCGTATTTGCA (site CTGGAAACTTA)	1.34
AGCCTTTCATGGACCGGTTTTCCCGGTAATCCGTATTTGAG (site AGCCTTTCTAT)	0
CAGGGCCCATGGACCGGTTTTCCCGGTAATCCGTATTTGTT (site CAGGGCCCTAA)	0.381
CAATTCCCATGGACCGGTTTTCCCGGTAATCCGTATTTGCT (site CTATTCCCTAG)	0
CTGTAGGCATGGACCGGTTTTCCCGGTAATCCGTATTTGGC (site TTGTAGGCTGC)	0
GTGGAGGCATGGACCGGTTTTCCCGGTAATCCGTATTTGTG (site GTGGAGGCTTA)	1.42
TACTTGACATGGACCGGTTTTCCCGGTAATCCGTATTTGCT (site TACTTGACTAG)	1.12
CCTGCAGCATGGACCGGTTTTCCCGGTAATCCGTATTTGTG (site CCTGCAGCTCA)	0.0206
GAGCCCACATGGACCGGTTTTCCCGGTAATCCGTATTTGAA (site GAGCCCACTTT)	1.73
GCTTTCCCATGGACCGGTTTTCCCGGTAATCCGTATTTGAT (site GCTTTCCCTAT)	0.343
CACTTGACATGGACCGGTTTTCCCGGTAATCCGTATTTGGA (site CACTTGCCTTC)	0.0198

Sequence	recombinant UMI read abundance (log10)
TATGTAACATGGACCGGTTTTCCCGGTAATCCGTATTTGCT (site TATGTAACTAG)	2.06
TTTCTGTCATGGACCGGTTTTCCCGGTAATCCGTATTTGAA (site TTTCTGTCTTT)	0.0118
GTTCGAGCATGGACCGGTTTTCCCGGTAATCCGTATTTGTA (site GTTCGAGCTTC)	0.014
CCCGGACCATGGACCGGTTTTCCCGGTAATCCGTATTTGCA (site CCCGGTCCTTG)	0.0045
TAATGAGCATGGACCGGTTTTCCCGGTAATCCGTATTTGGT (site TAATGAGCTCC)	0.00749
CAATTCGCATGGACCGGTTTTCCCGGTAATCCGTATTTGCT (site CAATTCACTAG)	1.08
CCCTTCTCATGGACCGGTTTTCCCGGTAATCCGTATTTGGC (site CCCTTCTCTGC)	1.71
CCCCTATCATGGACCGGTTTTCCCGGTAATCCGTATTTGTC (site CCCGTATCTGA)	0
TTTAATTCATGGACCGGTTTTCCCGGTAATCCGTATTTGCA (site TTTAATTCTTG)	0
ATTGAGACATGGACCGGTTTTCCCGGTAATCCGTATTTGGT (site ATTGAGACTGC)	0.953
GGTACTTCATGGACCGGTTTTCCCGGTAATCCGTATTTGTT (site GGTACCTCTAA)	0.0128
TATTTGGCATGGACCGGTTTTCCCGGTAATCCGTATTTGGG (site TATTTGGCTCA)	0
AGGAAGGCATGGACCGGTTTTCCCGGTAATCCGTATTTGGA (site AGGAAGACTTG)	0.224
GTACTTCCATGGACCGGTTTTCCCGGTAATCCGTATTTGTC (site GTACTTCCTGA)	1.93
CTAGTATCATGGACCGGTTTTCCCGGTAATCCGTATTTGAC (site CTAGTGTCTAT)	0.00843
CAGAGTCCATGGACCGGTTTTCCCGGTAATCCGTATTTGTT (site CAGAGTCCTAA)	1.92
AATGTAGCATGGACCGGTTTTCCCGGTAATCCGTATTTGCT (site AATGTATCTAG)	0.516
CGAGCATCATGGACCGGTTTTCCCGGTAATCCGTATTTGCA (site CGAGCATCTTG)	2.46
GGAGTGGCATGGACCGGTTTTCCCGGTAATCCGTATTTGGT (site GGTGTGGCTAC)	0.564

Sequence	recombinant UMI read abundance (log10)
CTAGTGTCATGGACCGGTTTTCCCGGTAATCCGTATTTGAC (site CTAGTTTCTGT)	0
GCCATATCATGGACCGGTTTTCCCGGTAATCCGTATTTGTC (site TCCATATCTGA)	1.87
CGAAGTGCATGGACCGGTTTTCCCGGTAATCCGTATTTGTT (site CGAAGTGCTAA)	2.57
ATAGTATCATGGACCGGTTTTCCCGGTAATCCGTATTTGCG (site ACAGTATCTTG)	1.46
CAGTGGACATGGACCGGTTTTCCCGGTAATCCGTATTTGGG (site CAGTAGACTCC)	0.368
TTAGCTGCATGGACCGGTTTTCCCGGTAATCCGTATTTGTG (site TTAACTGCTCA)	0.0107
GGAGTGGCATGGACCGGTTTTCCCGGTAATCCGTATTTGGT (site GGAGTGGCTAA)	0.0703
GATTGGACATGGACCGGTTTTCCCGGTAATCCGTATTTGCC (site GATTGGACTGC)	0
GTAGTCGCATGGACCGGTTTTCCCGGTAATCCGTATTTGGG (site GTAGTCGCTCT)	0.661
TCACACTCATGGACCGGTTTTCCCGGTAATCCGTATTTGCA (site TCACACTCTTG)	2.68
CACGGCCCATGGACCGGTTTTCCCGGTAATCCGTATTTGTT (site CACGACCCTAA)	0.652
GCGCGAACATGGACCGGTTTTCCCGGTAATCCGTATTTGAC (site GCGCGAACTGT)	1.77
CTACTATCATGGACCGGTTTTCCCGGTAATCCGTATTTGGA (site CTACTAACTTC)	0.127
GCAGTGGCATGGACCGGTTTTCCCGGTAATCCGTATTTGGT (site GTAGTGGCTAC)	0.0239
CTCTAGTCATGGACCGGTTTTCCCGGTAATCCGTATTTGTG (site CTCTAGTCTCA)	1.99
ATACGGCCATGGACCGGTTTTCCCGGTAATCCGTATTTGAC (site ATATGGCCTGT)	0
CTGTTTACATGGACCGGTTTTCCCGGTAATCCGTATTTGCT (site CAGTTTACTAG)	0.405
AGCGTAGCATGGACCGGTTTTCCCGGTAATCCGTATTTGTT (site AGCCTAGCTAA)	0.0274
AATTATCCATGGACCGGTTTTCCCGGTAATCCGTATTTGCT (site GATTATCCTAG)	0.232
